Where only a bound is given, the exact number is not on record here.

Consider 23 compounds from patent publication US8551984B2, “Aminopyrimidines as SYK inhibitors” (Merck Sharp & Dohme Corp., priority 2009, dated 2013).

For the first test, the target named is recombinant human SYK (GST-hSYK fusion protein) (Homo sapiens, UniProt P43405). Briefly: biochemical. Particulars: rhSYK Activity (IC50), recombinant human GST-SYK 5 pM, ATP 25 μM, biotinylated substrate peptide 250 nM, HTRF, 10-dose titration.
Text: Homogeneous Time-Resolved Fluorescence (HTRF) Assay for the Recombinant Human SYK Enzyme:
In the case of `Cc1cc(Nc2nccc(OC(C)C)n2)cc(-c2cnc([C@@]3(O)CC[C@H](C(N)=O)C(C)(C)C3)s2)c1` [Example 119, (1S,4R)-4-hydroxy-2,2-dimethyl-4-[5-(3-methyl-5-{[4-(propan-2-yloxy)pyrimidin-2-yl]-amino}phenyl)-1,3-thiazol-2-yl]cyclohexanecarboxamide], the concentration for half-maximal inhibition (IC50) (commonly the concentration needed to halve the response being measured) was below 0.1 µM.

Take `COC(=O)[C@@H]1CC[C@@](O)(c2ncc(-c3cc(C)cc(Nc4nccc(C(F)(F)F)n4)c3)s2)CC1(C)C` [Example 121, Methyl(1R,4S)-4-hydroxy-2,2-dimethyl-4-[5-(3-methyl-5-{[4-(trifluoromethyl)pyrimidin-2-yl]-amino}phenyl)-1,3-thiazol-2-yl]cyclohexanecarboxylate]: the IC50 is below 0.1 µM. Turning to `COCCCc1ccnc(Nc2cc(C)cc(-c3cnc(C4(O)CCC(C(=O)OC(C)(C)C)CC4)s3)c2)n1` (centres unmarked) [Example 122, tert-butyl 4-hydroxy-4-[5-(3-{[4-(3-methoxypropyl)pyrimidin-2-yl]amino}-5-methylphenyl)-1,3-thiazol-2-yl]cyclohexanecarboxylate], the 50% inhibitory concentration (IC50) lay within 0.1 to 1 µM. Turning to `CC1(C)C[C@@](O)(c2ncc(-c3cc(CN)cc(Nc4nccc(C(F)(F)F)n4)c3)s2)CC[C@@H]1C(=O)O` [Example 123, (1S,4R)-4-{5-[3-(aminomethyl)-5-{[4-(trifluoromethyl)pyrimidin-2-yl]amino}phenyl]-1,3-thiazol-2-yl}-4-hydroxy-2,2-dimethylcyclohexanecarboxylic acid], the IC50 was below 0.1 µM.

On to `CC1(C)C[C@@](O)(c2ncc(-c3cc(CNC(N)=O)cc(Nc4nccc(C(F)(F)F)n4)c3)s2)CC[C@@H]1C(=O)O` [Example 124, (1S,4R)-4-[5-(3-[(carbamoylamino)methyl]-5-{[4-(trifluoromethyl)pyrimidin-2-yl]amino}phenyl)-1,3-thiazol-2-yl]-4-hydroxy-2,2-dimethylcyclohexanecarboxylic acid], for which the IC50 was below 0.1 µM. For the compound `CC(=O)NCc1cc(Nc2nccc(C(F)(F)F)n2)cc(-c2cnc([C@@]3(O)CC[C@H](C(=O)O)C(C)(C)C3)s2)c1` [Example 125, (1S,4R)-4-[5-(3-[(acetylamino)methyl]-5-{[4-(trifluoromethyl)pyrimidin-2-yl]amino}phenyl)-1,3-thiazol-2-yl]-4-hydroxy-2,2-dimethylcyclohexanecarboxylic acid], the IC50 was below 0.1 µM. For `Cc1cc(Nc2nccc(C(F)(F)F)n2)cc(-c2cnc(C3(OCCO)CCNC(=O)CC3)s2)c1` (centres unmarked) [Example 127, 5-(2-hydroxyethoxy)-5-[5-(3-methyl-5-{[4-(trifluoromethyl)pyrimidin-2-yl]amino}phenyl)-1,3-thiazol-2-yl]azepan-2-one], the half-maximal inhibitory concentration (IC50) was below 0.1 µM. As to `Cc1cc(Nc2nccc(C(F)(F)F)n2)cc(-c2cnc(C3(C#N)CCCCC3)s2)c1` [Example 128, 1-[5-(3-methyl-5-{[4-(trifluoromethyl)pyrimidin-2-yl]amino}phenyl)-1,3-thiazol-2-yl]cyclohexanecarbonitrile], the half-inhibitory concentration (IC50) was in the range of 0.1 to 1 µM.

`Cc1cc(Nc2nccc(C(F)(F)F)n2)cc(-c2cnc(C3(C(N)=O)CCCCC3)s2)c1` [Example 129, 1-[5-(3-methyl-5-{[4-(trifluoromethyl)pyrimidin-2-yl]amino}phenyl)-1,3-thiazol-2-yl]cyclohexanecarboxamide]: the IC50 is below 0.1 µM. With `Cc1cc(Nc2nccc(C(F)(F)F)n2)cc(-c2cnc(C3CCCCC3)s2)c1` [Example 130], the IC50 is 0.1 to 1 µM.

For the compound `Cc1cc(Nc2nccc(C(F)(F)F)n2)cc(-c2cnc(C(C)(O)c3ccc(S(C)(=O)=O)cc3)s2)c1` (centres unmarked) [Example 131, 1-[4-(methylsulfonyl)phenyl]-1-[5-(3-methyl-5-{[4-(trifluoromethyl)pyrimidin-2-yl]amino}phenyl)-1,3-thiazol-2-yl]ethanol], the IC50 was below 0.1 µM. In the case of `Cc1cc(Nc2nccc(C(F)(F)F)n2)cc(-c2cnc(C3(F)CCSCC3)s2)c1` [Example 132, N-{3-[2-(4-fluorotetrahydro-2H-thiopyran-4-yl)-1,3-thiazol-5-yl]-5-methylphenyl}-4-(trifluoromethyl)pyrimidin-2-amine], the 50% inhibitory concentration (IC50) was 0.1 to 1 µM.

`Cc1cc(Nc2nccc(C(F)(F)F)n2)cc(-c2cnc(C3=CCSCC3)s2)c1` [Example 133, N-{3-[2-(3,6-dihydro-2H-thiopyran-4-yl)-1,3-thiazol-5-yl]-5-methylphenyl}-4-(trifluoromethyl)pyrimidin-2-amine]: the IC50 was below 0.1 µM. In the case of `Cc1cc(Nc2nccc(C(F)(F)F)n2)cc(-c2cnc(C3(F)CCS(=O)(=O)CC3)s2)c1` [Example 134, N-{3-[2-(4-fluoro-1,1-dioxidotetrahydro-2H-thiopyran-4-yl)-1,3-thiazol-5-yl]-5-methylphenyl}-4-(trifluoromethyl)pyrimidin-2-amine], the half-inhibitory concentration (IC50) is below 0.1 µM. Take `Cc1cc(Nc2nccc(C(F)(F)F)n2)cc(-c2cnc(C3=CCS(=O)(=O)CC3)s2)c1` [Example 135, N-{3-[2-(1,1-dioxido-3,6-dihydro-2H-thiopyran-4-yl)-1,3-thiazol-5-yl]-5-methylphenyl}-4-(trifluoromethyl)pyrimidin-2-amine]: the 50% inhibitory concentration (IC50) is below 0.1 µM. For `Cc1cc(Nc2nccc(C(F)(F)F)n2)cc(-c2cnc(C3CCSCC3)s2)c1` [Example 136, N-{3-methyl-5-[2-(tetrahydro-2H-thiopyran-4-yl)-1,3-thiazol-5-yl]phenyl}-4-(trifluoromethyl)pyrimidin-2-amine], the IC50 was below 0.1 µM.

For `Cc1cc(Nc2nccc(C(F)(F)F)n2)cc(-c2cnc(C3CCS(=O)(=O)CC3)s2)c1` [Example 137, N-{3-[2-(1,1-dioxidotetrahydro-2H-thiopyran-4-yl)-1,3-thiazol-5-yl]-5-methylphenyl}-4-(trifluoromethyl)pyrimidin-2-amine], the IC50 is below 0.1 µM. On the same count and under the same terms, then `Cc1cc(Nc2nccc(C(F)(F)F)n2)cc(-c2cnc(C34CCC(C(=O)O3)C(C)(C)C4)s2)c1` (stereo not drawn) [Example 139, Cis-5,5-dimethyl-1-[5-(3-methyl-5-{[4-(trifluoromethyl)pyrimidin-2-yl]amino}phenyl)-1,3-thiazol-2-yl]-2-oxabicyclo[2.2.2]octan-3-one], with 0.1 to 1 µM; and `Cc1cc(Nc2nccc(C(F)(F)F)n2)cc(-c2cnc(C3(O)CCC(O)C4(CC4)C3)s2)c1` (centres unmarked) [Example 143(A), 7-[5-(3-methyl-5-{[4-(trifluoromethyl)pyrimidin-2-yl]amino}phenyl)-1,3-thiazol-2-yl]spiro[2.5]octane-4,7-diol], with below 0.1 µM. Regarding `Cc1cc(Nc2nccc(C(F)(F)F)n2)cc(-c2cnc(C3(O)CC4(CC4)C(O)C4(CC4)C3)s2)c1` (centres unmarked) [Example 143(B), 9-[5-(3-methyl-5-{[4-(trifluoromethyl)pyrimidin-2-yl]amino}phenyl)-1,3-thiazol-2-yl]dispiro[2.1.2.3]decane-4,9-diol], the IC50 is below 0.1 µM.

Staying with this test, now noted: rhSYK Activity, Table 115.
Regarding `Cc1cc(Nc2nccc(C(F)(F)F)n2)cc(-c2cnc(-c3cnn(CC(C)(C)O)c3)s2)c1` [Example 115-5], the half-maximal inhibitory concentration (IC50) is below 0.1 µM. As to `Cc1cc(Nc2nccc(C(F)(F)F)n2)cc(-c2cnc(-c3cnn(C(CCO)C(=O)O)c3)s2)c1` (centres unmarked) [Example 115-6], the half-maximal inhibitory concentration (IC50) is below 0.1 µM. With `Cc1cc(Nc2nccc(C(F)(F)F)n2)cc(-c2cnc(-c3cnn(CC4CNC(=O)O4)c3)s2)c1` (centres unmarked) [Example 115-7], the half-inhibitory concentration (IC50) was below 0.1 µM.
